{
  "source": "patent US10526357B2",
  "about": "“Pharmaceutical compounds” (Rafael Pharmaceuticals, Inc., priority 2014, dated 2020)",
  "format_in_all_cases": "cell-based",
  "key": {"[1]": {"system": "H460 non small lung carcinoma cells", "test": "CellTiter Glo (CTG) cell viability assay, in vitro cell killing, H460", "details": "Homo sapiens, 24 h treatment, 0.5% serum and 0.05% DMSO, relative to untreated control; for viability at 50 µM: NCI-H460, 50 μM, read-out: % avg live cells @ 50 μM (% Viable Cells Remaining); for viability at 100 µM: NCI-H460, 100 μM, read-out: % avg live cells @ 100 μM (% Viable Cells Remaining)", "excerpt": "(§1) The objective of this investigation was to assess the in vitro cell killing activities of analogs of lipoic acid in BXPC3 human pancreatic, H460 non small lung carcinoma, and SF539 human gliosarcoma cancer cells.\n(§2) Three human tumor cell types, BXPC3 human pancreatic cancer, H460 non small lung carcinoma, and SF539 human gliosarcoma, were used in this investigation. The BXPC3 and H460 cells were originally obtained from American Type Cell Culture (ATCC). The SF539 cells were originally obtained from the NCI AIDS and Cancer Specimen Bank (ACSB). All tumor cells were maintained at 37° C. in a humidified 5% CO2 atmosphere in T75 tissue culture flasks containing 20 mL of Roswell Park Memorial Institute (RPMI) 1640 containing 2 mM L-glutamine, 10% FBS and 1% penicillin and streptomycin (100 IU/mL penicillin and 100 μg/mL streptomycin). The tumor cells were split at a ratio of 1:5 every 4-5 days by trypsinization and resuspended in fresh medium in a new flask. Cells were harvested for experiments at 70-90% confluency.\n(§3) Stock solutions of each analog were prepared at a concentration of 200 and 100 mM in DMSO. Five μL of this solution was diluted in 10.0 mL of 0.5% serum containing RPMI media to give the desired 100 μM and 50 μM solutions in 0.05% DMSO.\n(§4) The cancer cells were seeded at 4000 cells/well for H460 cells and 6000 cells/well for BXPC3 and SF 539 cells and incubated 24 hours. The killing activity of analogs was assayed at 50 μM and 100 μM concentrations. The tumor cells were treated for 24 hours with the test article, and after 24 hours of treatment the number of viable tumor cells was determined using the CTG assay.\n(§5) The number of cells targeted for the study is 4×10^3 per well for H460 cells and 6×10^3 per well for BXPC3 and SF539 cells in 100 μL of medium. The actual number of cells were counted and seeded in the wells of a 96 well-plate. The cells were incubated for approximately 24 hours before addition of test article.\n(§6) The media in the plate was removed by aspiration, and 100 μL of the test article at a final concentration of 50 μM or 100 μM was added to the cells. After exposure to the test articles for 24 hours, the number of viable cells in each well was determined and the percent of viable cells relative to control (in the absence of test article) were calculated. Additionally, a set of wells was treated with cell culture medium in the absence of cells to obtain a value for background luminescence. A separate set of cells was seeded at the same time in a clear 96-well plate and observed under the microscope at 24 hours, following addition of the test article to estimate the amount of cells present after treatment.\n(§7) The number of viable cells was determined by using the CTG assay. Specifically, reagents were mixed and allowed to come to room temperature according to instructions from Promega, Inc. (Madison, Wis.). Cell plates were removed from the cell culture incubator and left on the bench for thirty minutes until they reached room temperature. 100 μL per well of CTG reagent was added with the 12-channel Eppendorf pipettor. The cells were lysed by shaking the plate for two minutes in a shaker. The cells were kept in room temperature for ten minutes to stabilize the luminescent signal. The luminescence was measured using the FLUOstar OPTIMA plate reader (BMG Labtech, Inc., Durham, N.C.).\n(§8) Data from luminescence readings was copied onto EXCEL spreadsheets, and cell growth relative to untreated cells was calculated, using the following equation: […]"}, "[2]": {"system": "BXPC3 human pancreatic cancer cells", "test": "CellTiter Glo (CTG) cell viability assay, in vitro cell killing, BXPC3", "details": "24 h treatment, 0.5% serum and 0.05% DMSO, relative to untreated control; for viability at 50 µM: BXPC-3, 50 μM, read-out: % avg live cells @ 50 μM (% Viable Cells Remaining); for viability at 100 µM: BXPC-3, 100 μM, read-out: % avg live cells @ 100 μM (% Viable Cells Remaining)", "excerpt": "as §1, §2, §3, §4, §5, §6, §7, §8"}, "[3]": {"system": "SF539 human gliosarcoma cells", "test": "CellTiter Glo (CTG) cell viability assay, in vitro cell killing, SF539", "details": "24 h treatment, 0.5% serum and 0.05% DMSO, relative to untreated control; for viability at 50 µM: SF-539, 50 μM, read-out: % avg live cells @ 50 μM (% Viable Cells Remaining); for viability at 100 µM: SF-539, 100 μM, read-out: % avg live cells @ 100 μM (% Viable Cells Remaining)", "excerpt": "as §1, §2, §3, §4, §5, §6, §7, §8"}},
  "data": [
    {"compound": "CCCCCCC(CCSCc1ccccc1)SCc1ccccc1", "note": "(stereo not drawn) [A]", "values": [
      {"measurement": "viability at 50 µM", "setting": "[1]", "value": 89, "unit": "%"},
      {"measurement": "viability at 100 µM", "setting": "[1]", "value": 70, "unit": "%"},
      {"measurement": "viability at 50 µM", "setting": "[2]", "value": 84, "unit": "%"},
      {"measurement": "viability at 100 µM", "setting": "[2]", "value": 75, "unit": "%"},
      {"measurement": "viability at 50 µM", "setting": "[3]", "value": 100, "unit": "%"},
      {"measurement": "viability at 100 µM", "setting": "[3]", "value": 98, "unit": "%"}
    ]},
    {"compound": "COCCCCCC(CCSCc1ccccc1)SCc1ccccc1", "note": "(stereo not drawn) [B]", "values": [
      {"measurement": "viability at 50 µM", "setting": "[1]", "value": 97, "unit": "%"},
      {"measurement": "viability at 100 µM", "setting": "[1]", "value": 67, "unit": "%"},
      {"measurement": "viability at 50 µM", "setting": "[2]", "value": 84, "unit": "%"},
      {"measurement": "viability at 100 µM", "setting": "[2]", "value": 91, "unit": "%"},
      {"measurement": "viability at 50 µM", "setting": "[3]", "value": 99, "unit": "%"},
      {"measurement": "viability at 100 µM", "setting": "[3]", "value": 99, "unit": "%"}
    ]},
    {"compound": "N#CCCCCC(CCSCc1ccccc1)SCc1ccccc1", "note": "(stereo not drawn) [C]", "values": [
      {"measurement": "viability at 50 µM", "setting": "[1]", "value": 69.8, "unit": "%"},
      {"measurement": "viability at 100 µM", "setting": "[1]", "value": 27.1, "unit": "%"},
      {"measurement": "viability at 50 µM", "setting": "[2]", "value": 70.9, "unit": "%"},
      {"measurement": "viability at 100 µM", "setting": "[2]", "value": 36.1, "unit": "%"},
      {"measurement": "viability at 50 µM", "setting": "[3]", "value": 74.9, "unit": "%"},
      {"measurement": "viability at 100 µM", "setting": "[3]", "value": 23.2, "unit": "%"}
    ]},
    {"compound": "c1ccc(CSCCC(CCCCc2nn[nH]n2)SCc2ccccc2)cc1", "note": "(stereo not drawn) [D]", "values": [
      {"measurement": "viability at 50 µM", "setting": "[1]", "value": 4.1, "unit": "%"},
      {"measurement": "viability at 100 µM", "setting": "[1]", "value": 2.7, "unit": "%"},
      {"measurement": "viability at 50 µM", "setting": "[2]", "value": 0.3, "unit": "%"},
      {"measurement": "viability at 100 µM", "setting": "[2]", "value": 3.9, "unit": "%"},
      {"measurement": "viability at 50 µM", "setting": "[3]", "value": 2.1, "unit": "%"},
      {"measurement": "viability at 100 µM", "setting": "[3]", "value": 0.1, "unit": "%"}
    ]},
    {"compound": "O=S(=O)(O)CCCCC(CCSCc1ccccc1)SCc1ccccc1", "note": "(stereo not drawn) [E]", "values": [
      {"measurement": "viability at 50 µM", "setting": "[1]", "value": 0, "unit": "%"},
      {"measurement": "viability at 100 µM", "setting": "[1]", "value": 0.3, "unit": "%"},
      {"measurement": "viability at 50 µM", "setting": "[2]", "value": 0, "unit": "%"},
      {"measurement": "viability at 100 µM", "setting": "[2]", "value": 0, "unit": "%"},
      {"measurement": "viability at 50 µM", "setting": "[3]", "value": 0, "unit": "%"},
      {"measurement": "viability at 100 µM", "setting": "[3]", "value": 0, "unit": "%"}
    ]},
    {"compound": "O=C(O)CCOCC(CCSCc1ccccc1)SCc1ccccc1", "note": "(stereo not drawn) [G]", "values": [
      {"measurement": "viability at 50 µM", "setting": "[1]", "value": 102, "unit": "%"},
      {"measurement": "viability at 100 µM", "setting": "[1]", "value": 37.6, "unit": "%"},
      {"measurement": "viability at 50 µM", "setting": "[2]", "value": 99.7, "unit": "%"},
      {"measurement": "viability at 100 µM", "setting": "[2]", "value": 41.7, "unit": "%"},
      {"measurement": "viability at 50 µM", "setting": "[3]", "value": 91.6, "unit": "%"},
      {"measurement": "viability at 100 µM", "setting": "[3]", "value": 30.3, "unit": "%"}
    ]}
  ]
}
